Legend:
Format in all cases: functional
HL-60 [1] = assay: Antitumor activity against human HL60 cells at 100 uM/L after 72 hrs by MTT assay; details: HL-60, 72 h
Amaranthus retroflexus [2] = assay: Herbicidal activity against Amaranthus retroflexus at 1.5 kg/hectare administered postemergence of first true leaf measured after 10 days; details: post-emergence, 240 h
Medicago sativa [3] = assay: Herbicidal activity against Medicago sativa at 1.5 kg/hectare administered postemergence of first true leaf measured after 10 days; details: post-emergence, 240 h
[4] = tested on: Botryosphaeria berengeriana; assay: Fungicidal activity against Physalospora pyricola assessed as inhibition of mycelium growth at 50 mg/L after 72 hrs
HL-60 [5] = assay: Antitumor activity against human HL60 cells at 10 uM/L after 72 hrs by MTT assay; details: HL-60, 72 h
Brassica napus [6] = assay: Herbicidal activity against Brassica napus L. at 1.5 kg/hectare administered preemergence of first true leaf measured after 10 days; details: pre-emergence, 240 h
Digitaria sanguinalis [7] = assay: Herbicidal activity against Digitaria sanguinalis (L.) Scop. at 1.5 kg/hectare administered preemergence of first true leaf measured after 10 days; details: pre-emergence, 240 h
Cucumis sativus = assay: Growth regulatory activity in cucumber assessed as root growth at 10 mg/L incubated in dark for 5 days
Digitaria sanguinalis [8] = assay: Herbicidal activity against Digitaria sanguinalis at 1.5 kg/hectare administered postemergence of first true leaf measured after 10 days; details: post-emergence, 240 h
HL-60 [9] = assay: Antitumor activity against human HL60 cells at 1000 uM/L after 72 hrs by MTT assay; details: HL-60, 72 h
Brassica napus [10] = assay: Herbicidal activity against Brassica napus at 1.5 kg/hectare administered postemergence of first true leaf measured after 10 days; details: post-emergence, 240 h
Medicago sativa [11] = assay: Herbicidal activity against Medicago sativa at 1.5 kg/hectare administered preemergence of first true leaf measured after 10 days; details: pre-emergence, 240 h
Fusarium graminearum = assay: Fungicidal activity against Gibberella zeae assessed as inhibition of mycelium growth at 50 mg/L after 72 hrs
Amaranthus retroflexus [12] = assay: Herbicidal activity against Amaranthus retroflexus at 1.5 kg/hectare administered preemergence of first true leaf measured after 10 days; details: pre-emergence, 240 h
Bel-7402 [13] = assay: Antitumor activity against human Bel7402 cells at 1 uM/L after 72 hrs by MTT assay; details: Bel-7402, 72 h
Bel-7402 [14] = assay: Antitumor activity against human Bel7402 cells at 10 uM/L after 72 hrs by MTT assay; details: Bel-7402, 72 h
Alternaria solani = assay: Fungicidal activity against Alternaria solani assessed as inhibition of mycelium growth at 50 mg/L after 72 hrs
Bel-7402 [15] = assay: Antitumor activity against human Bel7402 cells at 1000 uM/L after 72 hrs by MTT assay; details: Bel-7402, 72 h
Cladosporium cucumerinum = assay: Fungicidal activity against Cladosporium cucumerinum assessed as inhibition of mycelium growth at 50 mg/L after 72 hrs
Bel-7402 [16] = assay: Antitumor activity against human Bel7402 cells at 100 uM/L after 72 hrs by MTT assay; details: Bel-7402, 72 h
Mycosphaerella arachidis = assay: Fungicidal activity against Cercospora arachidicola assessed as inhibition of mycelium growth at 50 mg/L after 72 hrs
HL-60 [17] = assay: Antitumor activity against human HL60 cells at 1 uM/L after 72 hrs by MTT assay; details: HL-60, 72 h

Structure (SMILES) | inhibition at 100 µM (HL-60 [1]) | inhibition at 1500 g/ha (Amaranthus retroflexus [2]) | inhibition at 1500 g/ha (Medicago sativa [3]) | inhibition at 50 µg/mL [4] | inhibition at 10 µM (HL-60 [5]) | inhibition at 1500 g/ha (Brassica napus [6]) | inhibition at 1500 g/ha (Digitaria sanguinalis [7]) | Activity (Cucumis sativus) | inhibition at 1500 g/ha (Digitaria sanguinalis [8]) | inhibition at 1000 µM (HL-60 [9]) | inhibition at 1500 g/ha (Brassica napus [10]) | inhibition at 1500 g/ha (Medicago sativa [11]) | inhibition at 50 µg/mL (Fusarium graminearum) | inhibition at 1500 g/ha (Amaranthus retroflexus [12]) | inhibition at 1 µM (Bel-7402 [13]) | inhibition at 10 µM (Bel-7402 [14]) | inhibition at 50 µg/mL (Alternaria solani) | inhibition at 1000 µM (Bel-7402 [15]) | inhibition at 50 µg/mL (Cladosporium cucumerinum) | inhibition at 100 µM (Bel-7402 [16]) | also measured
CCOCCOC(=O)/C(C#N)=C(/CC)NNc1c(Cl)cc(Cl)cc1Cl | 36.6% | 13.3% | 5.6% | 46.7% | 23.1% | 0% | 0% | -16.5% | 1.8% | 84.3% | 0% | 0% | 19.2% | 8.8% | 0% | 3.9% | 25% | 95.9% | 22.2% | 3.6% | inhibition at 50 µg/mL (Mycosphaerella arachidis): 15.5%; inhibition at 1 µM (HL-60 [17]): 2.5%
CCOCCOC(=O)/C(C#N)=C(\NNc1cccc(Cl)c1Cl)C(C)C | 36.2% | 22.7% | 5.1% | 66.7% | 28.7% | 0% | 0% | 72.9% | 16.1% | 48.8% | 0.2% | 0% | 14.4% | 0% | 14.7% | 15.1% | 35% | 49.1% | 25% | 19% | inhibition at 50 µg/mL (Mycosphaerella arachidis): 36.4%; inhibition at 1 µM (HL-60 [17]): 24.3%

— ChEMBL document CHEMBL1136896, “Synthesis and biological evaluation of arylhydrazinocyanoacrylates and N-aryl pyrazolecarboxylates” (2009)
